Measured values from ChEMBL document CHEMBL3822367, “Use of Photosensitizers in Semisolid Formulations for Microbial Photodynamic Inactivation” (2016).

Legend:
Assay type in all cases: functional
Candida albicans [1] = assay: Antibiofilm activity against Candida albicans ATCC-MYA-273 assessed as cell killing at 1 uM irradiated with blue light at 48 J/cm'2 for 4 hrs by microplate reader method
Staphylococcus aureus [2] = assay: Antibiofilm activity against Staphylococcus aureus SH1000 assessed as inhibition of planktonic bacterial growth after 24 hrs by turbidity method; details: SH1000, 24 h
Staphylococcus aureus [3] = assay: Antibiofilm activity against Staphylococcus aureus SH1000 after 24 hrs by plate count method
Staphylococcus aureus [4] = assay: Antibacterial activity against methicillin-resistant Staphylococcus aureus ATCC BAA-44 infected in porcine stratum corneum assessed as reduction in viable cells at 10 uM preincubated for 1 hr with bacteria prior to application of bacteria on skin incubated for 5 to 240 mins followed by irradiation with blue light
Staphylococcus aureus [5] = assay: Antibacterial activity against Staphylococcus aureus SH1000 in stationary phase assessed as reduction in cell viability at 4 times MIC after 2 hrs by time kill kinetic assay relative to control
Candida albicans [6] = assay: Antimicrobial activity against Candida albicans ATCC-MYA-273 assessed as reduction in planktonic cell viability at 0.5 uM irradiated with blue light at 12 J/cm'2 for 15 mins by ten fold serial dilution method
Trichophyton rubrum = assay: Antifungal activity against Trichophyton rubrum infected in mouse assessed as reduction in fungal burden using light source at 42 J/cm'2 for 10 mins for 7 days; parameters: scale not given: the % may be the effect or the level left
Burkholderia cepacia = assay: Antibacterial activity against Burkholderia cepacia assessed as cell killing at 250 ug/ml after 15 mins followed by irradiation with paterson lamp at 100 J/cm'2 by serial ten fold dilution method
Staphylococcus aureus [7] = assay: Antibacterial activity against methicillin-resistant Staphylococcus aureus 180 assessed as planktonic cell killing at 5 ug/ml after 15 mins followed by irradiation with paterson lamp at 100 J/cm'2 by serial ten fold dilution method
Pseudomonas aeruginosa [8] = assay: Antibiofilm activity against Pseudomonas aeruginosa ATCC 9027 assessed as decrease in cell viability using laser illumination at 13.2 J
Staphylococcus aureus [9] = assay: Antibacterial activity against methicillin-resistant Staphylococcus aureus 180 assessed as planktonic cell killing at 50 ug/ml after 15 mins followed by irradiation with paterson lamp at 100 J/cm'2 by serial ten fold dilution method
Pseudomonas aeruginosa [10] = assay: Antibacterial activity against Pseudomonas aeruginosa ATCC 9027 assessed as planktonic cell killing using laser illumination at 15.5 J/cm'2

## C[N+](C)(C)CCCOc1ccc(-c2c3nc(cc4ccc([nH]4)c(-c4ccc(OCCC[N+](C)(C)C)cc4)c4nc(cc5ccc2[nH]5)C=C4)C=C3)cc1.[Cl-].[Cl-] [EXEPORFINIUM CHLORIDE]
Candida albicans [1]
  Activity: 5 deltalog10CFU/ml
Staphylococcus aureus [2]
  MIC: 1 µg/mL
Staphylococcus aureus [3]
  MBEC: 2 mg/L
Staphylococcus aureus [4]
  Activity: 3.6 deltalog10CFU/ml
Staphylococcus aureus [5]
  Activity: >=5 deltalog10CFU/ml
Candida albicans [6]
  Activity: 6 deltalog10CFU/ml

## Cetyltrimethylammonium bromide
Staphylococcus aureus [5]
  Activity (deltalog10CFU/ml): 3

## N=C(NCCCCCCNC(=N)NC(=N)Nc1ccc(Cl)cc1)NC(=N)Nc1ccc(Cl)cc1 [CHLORHEXIDINE]
Staphylococcus aureus [5]
  Activity: 3 deltalog10CFU/ml

## Cc1cc2nc3ccc(N(C)C)cc3[s+]c2cc1N.[Cl-] [TOLONIUM CHLORIDE]
Trichophyton rubrum
  Activity: 87%

## C[n+]1ccc(-c2c3nc(c(-c4cc[n+](C)cc4)c4ccc([nH]4)c(-c4cc[n+](C)cc4)c4nc(c(-c5cc[n+](C)cc5)c5ccc2[nH]5)C=C4)C=C3)cc1.Cc1ccc(S(=O)(=O)[O-])cc1.Cc1ccc(S(=O)(=O)[O-])cc1.Cc1ccc(S(=O)(=O)[O-])cc1.Cc1ccc(S(=O)(=O)[O-])cc1
Burkholderia cepacia
  Activity: 99.9%
Staphylococcus aureus [7]
  Activity: 100%

## C[N+](C)(C)CCCOc1cccc(-c2c3nc(cc4ccc([nH]4)c(-c4cccc(OCCC[N+](C)(C)C)c4)c4nc(cc5ccc2[nH]5)C=C4)C=C3)c1.[Cl-].[Cl-]
Staphylococcus aureus [2]
  MIC: 1 µg/mL
Staphylococcus aureus [3]
  MBEC: 2 mg/L
Staphylococcus aureus [5]
  Activity: >=5 deltalog10CFU/ml

## CN(C)c1ccc2nc3ccc(N(C)C)cc3[s+]c2c1.[Cl-] [METHYLENE BLUE ANHYDROUS]
Pseudomonas aeruginosa [8]
  Activity: >99.999%
Burkholderia cepacia
  Activity: 100%
Staphylococcus aureus [9]
  Activity: 100%
Pseudomonas aeruginosa [10]
  Activity: 100%
